According to US11337984B2, “Methods for treating, diagnosing and prognosing a haematological malignancy” (Institut de Recerca Contra La Leucèmia Josep Carreras, priority 2014, dated 2022):

Test system: lineage-depleted UCB cells
Assay: Engraftment of ex vivo treated lineage-depleted UCB cells in NSG mice
Parameters: species or system mouse
Conditions: ex vivo 10 μM for 18 h; 8 weeks after transplantation
Description: FIG. 16. 5HTR antagonist treatment reduces the leukemia regeneration capacity of primary AML cells, whilst sparing healthy hematopoietic stem/progenitor cells. 1-10×10^6 primary AML patient cells or 10-14×10^4 lineage-depleted CB cells were ex vivo treated (10 μM apomorphine, 10 μM methiothepin or vehicle control) for 18 h in IMDM supplemented with 5% heat-inactivated fetal bovine serum and hematopoietic cytokines. Cells were injected IV in previously busulfan (30 mg/kg)-conditioned NSG mice and left 8 weeks untreated. Mice were sacrificed and their bones (iliac crests, femurs and tibias) were harvested and analyzed for the presence of human leukemia (upper panel) or healthy blood (lower panel) cells by flow cytometry. Four AML patient samples and three umbilical cord blood (UCB) samples were tested. *p<0.05; **p<0.01.
Leukemia-initiating cells (LIC) or LSCs are responsible for the engraftment of AML cells in xenograft mouse models and are thought to initiate and maintain the disease in humans. Primary AML patient samples were treated ex vivo with 5HTR antagonists for 18 h and transplanted into conditioned immunodeficient NSG mice. Eight weeks after transplantation, murine bone marrow was analyzed for the presence of human AML cells.

In the case of `CN1CCc2cccc3c2[C@H]1Cc1ccc(O)c(O)c1-3` [Apomorphine, (6aR)-6-methyl-5,6,6a,7-tetrahydro-4H-dibenzo[de,g]quinoline-10,11-diol], the “normal hematopoietic regeneration capacity of lineage-depleted UCB cells” value is reported as “negligible effect”.
